In patent US20240254143A1, “OREXIN RECEPTOR AGONISTS AND USES THEREOF” (JAZZ PHARMACEUTICALS IRELAND LIMITED, priority 2021, published 2024) one finds EC50 data, which are given here for 22 molecules.

Each structure is given as a SMILES string.

The target in the assay is T1, human recombinant OX2 (hOX2) receptor (Homo sapiens, UniProt O43614).
T1 construct: host or cells: CHO cells
T1 sequence (O43614 1-444): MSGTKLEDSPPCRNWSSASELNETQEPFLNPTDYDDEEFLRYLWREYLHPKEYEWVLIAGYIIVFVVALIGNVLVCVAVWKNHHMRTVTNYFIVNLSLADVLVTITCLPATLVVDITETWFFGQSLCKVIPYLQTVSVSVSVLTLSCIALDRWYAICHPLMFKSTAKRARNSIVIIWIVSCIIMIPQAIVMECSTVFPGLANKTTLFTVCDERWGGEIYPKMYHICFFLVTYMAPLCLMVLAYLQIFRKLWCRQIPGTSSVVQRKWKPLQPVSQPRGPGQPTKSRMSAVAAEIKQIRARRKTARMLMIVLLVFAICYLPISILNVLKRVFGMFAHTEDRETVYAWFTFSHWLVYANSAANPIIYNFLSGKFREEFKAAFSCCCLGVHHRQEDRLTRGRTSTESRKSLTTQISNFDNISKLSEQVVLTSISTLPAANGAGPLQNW
Briefly: IP-1 accumulation assay (IP-One HTRF) in hOX2-CHO cells. The format is cell-based. To be noted: 60 min at 37° C., mean of at least two independent experiments, read-out: EC50_OX2R Category. The procedure:
Example 94: IP-1 Accumulation Assay
The accumulation of Inositol-1 Monophosphate (IP-1) was measured using IP-One HTRF® Terbium cryptate based assay (Cisbio) in human recombinant OX1 (hOX1) and at OX2 (hOX2) receptors expressed in CHO cells (DiscoverX) according to the manufacturer's instructions for cells tested in suspension.
hOX1-CHO and hOX2-CHO cells were seeded into white 384-well plates at a density of 20,000 cells/well in Hank's Balanced Salt Solution (HBSS) containing 20 mM HEPES pH 7.4, 50 mM, LiCl and 0.1% and Bovine Serum Albumin (BSA).
Compounds of the present disclosure were tested in a 11 points concentration response curve (CRC) serially diluted in neat DMSO at 200 fold concentrations and added by Echo acoustic liquid handling (Labcyte) to the cells (0.5% DMSO final in the assay). After 60 min of incubation at 37° C. detection reagents, IP1-d2 tracer and anti-IP1-cryptate were diluted in lysis buffer according to the manufacturer's descriptions and added to the cells.
Following 60 mi incubation at room temperature, time-resolved fluorescence (HTRF) was measured at 615 nm and 665 nm by Envision Multilabel reader (Perkin Elmer) and the HTRF ratio (A665/A615×10^4) was calculated.
The IP-1 accumulation response was expressed as percentage of the maximal OX-A response.
Curve fitting and EC50 estimations were carried out using a four-parameter logistic model using XLfit Software. Mean data of EC50 are calculated from at least two independent experiments performed in duplicates.
For orientation: TR-FRET usually uses a lanthanide donor and a delayed reading to cut background.
For the molecule `CCNC(=O)N1CCC[C@@]2(CCOC(=O)N2)[C@@H]1Cc1cccc(-c2ccccc2)c1` [Example 27, (6R,7S)-7-({[1,1′-biphenyl]-3-yl}methyl)-N-ethyl-2-oxo-3-oxa-1,8-diazaspiro[5.5]undecane-8-carboxamide], the EC50 is 100 to 1000 nM. Under `COC(=O)N1CCC[C@@]2(COC(=O)N2)[C@@H]1Cc1cccc(-c2ccccc2)c1` [Example 29, Methyl (5S,6S)-6-({[1,1′-biphenyl]-3-yl}methyl)-2-oxo-3-oxa-1,7-diazaspiro[4.5]decane-7-carboxylate] stands over 10000 nM; under `CCNC(=O)N1[C@H](C)C[C@@]2(COCC(=O)N2)[C@@H]1CO[C@H]1CC[C@@H](c2ccccc2)CC1` [Example 47, (1R,3R,5S)-N-ethyl-3-methyl-7-oxo-1-({[(CIS)-4-phenylcyclohexyl]oxy}methyl)-9-oxa-2,6-diazaspiro[4.5] decane-2-carboxamide], under 100 nM; under `CCNC(=O)N1[C@H](C)C[C@]2(COCC(=O)N2)[C@H]1CO[C@H]1CC[C@@H](c2ccccc2)CC1` [Example 48, (1S,3R,5R)-N-ethyl-3-methyl-7-oxo-1-({[(CIS)-4-phenylcyclohexyl]oxy}methyl)-9-oxa-2,6-diazaspiro[4.5] decane-2-carboxamide], over 10000 nM. Under `C[C@@H]1C[C@@]2(COCC(=O)N2)[C@H](CO[C@H]2CC[C@@H](c3ccccc3)CC2)N1C(=O)C(C)(C)O` [Example 49, (1R,3R,5S)-2-(2-hydroxy-2-methylpropanoyl)-3-methyl-1-({[(CIS)-4-phenylcyclohexyl]oxy}methyl)-9-oxa-2,6-diazaspiro[4.5]decan-7-one] stands 1000 to 10000 nM; under `C[C@@H]1C[C@@]2(COCC(=O)N2)[C@H](CO[C@H]2CC[C@@H](c3ccccc3)CC2)N1C(=O)NCC(F)F` [Example 50, (1R,3R,5S)-N-(2,2-difluoroethyl)-3-methyl-7-oxo-1-({[(CIS)-4-phenylcyclohexyl]oxy}methyl)-9-oxa-2,6-diazaspiro[4.5]decane-2-carboxamide], under 100 nM. On to `COCCNC(=O)N1[C@H](C)C[C@@]2(COCC(=O)N2)[C@@H]1CO[C@H]1CC[C@@H](c2ccccc2)CC1` [Example 51, (1R,3R,5S)-N-(2-methoxyethyl)-3-methyl-7-oxo-1-({[(CIS)-4-phenylcyclohexyl]oxy}methyl)-9-oxa-2,6-diazaspiro[4.5]decane-2-carboxamide], for which the EC50 was under 100 nM.

With `C[C@@H]1C[C@@]2(COCC(=O)N2)[C@H](CO[C@H]2CC[C@@H](c3ccccc3)CC2)N1C(=O)N1CC(F)(F)C1` [Example 52, (1R,3R,5S)-2-(3,3-difluoroazetidine-1-carbonyl)-3-methyl-1-({[(CIS)-4-phenylcyclohexyl]oxy}methyl)-9-oxa-2,6-diazaspiro[4.5]decan-7-one], the EC50 is 1000 to 10000 nM. In the case of `CCNC(=O)N1[C@H](C)C[C@@]2(COCC(=O)N2)[C@@H]1Cc1cccc(-c2cc(F)cc(F)c2)c1F` [Example 53, (1S,3R,5S)-N-ethyl-3-methyl-7-oxo-1-({2,3′,5′-trifluoro-[1,1′-biphenyl]-3-yl}methyl)-9-oxa-2,6-diazaspiro[4.5]decane-2-carboxamide], the EC50 is under 100 nM. For `C[C@@H]1C[C@@]2(COCC(=O)N2)[C@H](Cc2cccc(-c3cc(F)cc(F)c3)c2F)N1C(=O)C(C)(C)O` [Example 54, (1S,3R,5S)-2-(2-hydroxy-2-methylpropanoyl)-3-methyl-1-({2,3′,5′-trifluoro-[1,1′-biphenyl]-3-yl}methyl)-9-oxa-2,6-diazaspiro[4.5]decan-7-one], the EC50 lay within 100 to 1000 nM. For the molecule `C[C@@H]1C[C@@]2(COCC(=O)N2)[C@H](CO[C@H]2CC[C@@H](c3ccccc3)CC2)N1C(=O)C1CCC1` [Example 58, (1R,3R,5S)-2-cyclobutanecarbonyl-3-methyl-1-({[(CIS)-4-phenylcyclohexyl]oxy}methyl)-9-oxa-2,6-diazaspiro [4.5]decan-7-one], the EC50 was under 100 nM. For `C[C@@H]1C[C@@]2(COCC(=O)N2)[C@H](CO[C@H]2CC[C@@H](c3ccccc3)CC2)N1C(=O)[C@H]1C[C@@H](F)C1` [Example 59, (1R,3R,5S)-3-methyl-2-[(1s,3s)-3-fluorocyclobutanecarbonyl]-1-({[(CIS)-4-phenylcyclohexyl]oxy}methyl)-9-oxa-2,6-diazaspiro[4.5]decan-7-one], the EC50 was under 100 nM. Under `C[C@@H]1C[C@@]2(COCC(=O)N2)[C@H](CO[C@H]2CC[C@@H](c3ccccc3)CC2)N1C(=O)C12CC(C1)C2` [Example 60, (1R,3R,5S)-2-{bicyclo[1.1.1]pentane-1-carbonyl}-3-methyl-1-({[(CIS)-4-phenylcyclohexyl]oxy}methyl)-9-oxa-2,6-diazaspiro[4.5]decan-7-one] stands 1000 to 10000 nM; under `C[C@@H]1C[C@@]2(COCC(=O)N2)[C@H](CO[C@H]2CC[C@@H](c3ccccc3)CC2)N1C(=O)OCC(F)F` [Example 61, 2,2-difluoroethyl (1R,3R,5S)-3-methyl-7-oxo-1-({[(CIS)-4-phenylcyclohexyl]oxy}methyl)-9-oxa-2,6-diazaspiro [4.5]decane-2-carboxylate], under 100 nM.

On to `C[C@@H]1C[C@@]2(COCC(=O)N2)[C@H](CO[C@H]2CC[C@@H](c3ccccc3)CC2)N1C(=O)NCC(F)(F)F` [Example 62, (1R,3R,5S)-3-methyl-7-oxo-1-({[(CIS)-4-phenylcyclohexyl]oxy}methyl)-N-(2,2,2-trifluoroethyl)-9-oxa-2,6-diazaspiro[4.5]decane-2-carboxamide], for which the EC50 was under 100 nM. Turning to `COc1cccnc1N1[C@H](C)C[C@@]2(COCC(=O)N2)[C@@H]1CO[C@H]1CC[C@@H](c2ccccc2)CC1` [Example 63, (1R,3R,5S)-2-(3-methoxypyridin-2-yl)-3-methyl-1-({[(CIS)-4-phenylcyclohexyl]oxy}methyl)-9-oxa-2,6-diazaspiro[4.5]decan-7-one], the EC50 was 100 to 1000 nM. Under `C[C@@H]1C[C@@]2(COCC(=O)N2)[C@H](CO[C@H]2CC[C@@H](c3ccccc3)CC2)N1c1nnnn1C` [Example 64, (1R,3R,5S)-3-methyl-2-(1-methyl-1H-1,2,3,4-tetrazol-5-yl)-1-({[(CIS)-4-phenylcyclohexyl]oxy}methyl)-9-oxa-2,6-diazaspiro[4.5]decan-7-one] stands under 100 nM; under `O=C1COC[C@@]2(C[C@@H](C(F)F)N(C(=O)[C@H]3C[C@@H](F)C3)[C@H]2Cc2cccc(-c3cc(F)cc(F)c3)c2F)N1` [Example 80, (1S,3S,5S)-3-(difluoromethyl)-2-[(1s,3s)-3-fluorocyclobutanecarbonyl]-1-({2,3′,5′-trifluoro-[1,1′-biphenyl]-3-yl}methyl)-9-oxa-2,6-diazaspiro[4.5]decan-7-one], 100 to 1000 nM; under `C[C@@H]1C[C@@]2(COCC(=O)N2)[C@H](Cc2cccc(-c3cc(F)cc(F)c3)c2F)N1C(=O)C1CCC1` [Example 81, (1S,3R,5S)-2-cyclobutanecarbonyl-3-methyl-1-({2,3′,5′-trifluoro-[1,1′-biphenyl]-3-yl}methyl)-9-oxa-2,6-diazaspiro[4.5]decan-7-one], under 100 nM. Under `C[C@@H]1C[C@@]2(COCC(=O)N2)[C@H](Cc2cccc(-c3cc(F)cc(F)c3)c2F)N1C(=O)[C@H]1C[C@@H](F)C1` [Example 82, (1S,3R,5S)-3-methyl-2-[(1s,3s)-3-fluorocyclobutanecarbonyl]-1-({2,3′,5′-trifluoro-[1,1′-biphenyl]-3-yl}methyl)-9-oxa-2,6-diazaspiro[4.5]decan-7-one] stands under 100 nM; under `C[C@@H]1C[C@@]2(COCC(=O)N2)[C@H](Cc2cccc(-c3cc(F)cc(F)c3)c2F)N1C(=O)OCC(F)F` [Example 83, 2,2-difluoroethyl (1S,3R,5S)-3-methyl-7-oxo-1-({2,3′,5′-trifluoro-[1,1′-biphenyl]-3-yl}methyl)-9-oxa-2,6-diazaspiro[4.5]decane-2-carboxylate], 100 to 1000 nM. Consider `C[C@@H]1C[C@@]2(COCC(=O)N2)[C@H](Cc2cccc(-c3cc(F)cc(F)c3)c2F)N1C(=O)CC(F)(F)F` [Example 84, (1S,3R,5S)-3-methyl-1-({2,3′,5′-trifluoro-[1,1′-biphenyl]-3-yl}methyl)-2-(3,3,3-trifluoropropanoyl)-9-oxa-2,6-diazaspiro[4.5]decan-7-one], for which the EC50 was in the range of 100 to 1000 nM.
